Measurements as given in patent US4745067A, “L-aminoacylases” (Microbial Chemistry Research Foundation, priority 1985, dated 1988).
“Also recorded” adds a separate entry of the source. Like-named read-outs stand apart in the source and are kept apart here.

Key:
[1] = tested on: L-aminoacylase S1; experiment: Influence of metal ions on L-aminoacylase S1; format: biochemical, Streptomyces hachijoensis; conditions: for Relative activity (%): 1 mM metal salt, 37° C. one hour, substrate N-Ac-DB-DOPS, no metal added = 100%
Protocol: (§1) A potassium phosphate buffer solution (pH 7.0) of the enzyme of the present invention was treated for one hour at various temperatures, and the remaining activity was measured. As the substrate, L-threo-N-acetyl-3-(3,4-dibenzyloxyphenyl)serine (hereinafter referred to simply as N-Ac-DB-DOPS) was employed, and the reaction was conducted at 37° C. for one hour, whereupon freed L-threo-3-(3,4-dibenzyloxyphenyl)serine (hereinafter referred to simply as DB-DOPS) was measured by a ninhydrin method to determine the activity.
L-aminoacylase S1 of the present invention is added to a 0.1 M Veronal buffer solution containing a final concentration of 1 mM of various metal salts, and left to stand at 37° C. for one hour. Then, it was reacted with N-Ac-DB-DOPS as the substrate at 37° C. for 1 hour, whereby the relative activity was measured by the above-mentioned method. The one where no metal was added, was evaluated to be 100%.

[2] = tested on: L-aminoacylase S2; experiment: Influence of metal ions on L-aminoacylase S2; format: biochemical, Streptoverticillium rimofaciens; conditions: for Relative activity (%): 1 mM metal salt, 37° C. 1 hour, substrate N-Ac-DB-DOPS, no metal salt added = 100%
Protocol: As the substrate, N-Ac-DB-DOPS was used, and the reaction was conducted at 37° C. for one hour, whereby freed DB-DOPS was measured by a ninhydrin method to determine the enzymatic activity.
L-aminoacylase S2 of the present invention was added to 0.1 M Veronal buffer solution containing as the final concentration 1 mM of various metal salts, and the reaction was conducted at 37° C. for 1 hour. Then, it was reacted with N-Ac-DB-DOPS as the substrate at 37° C. for one hour, whereupon the relative activity was measured by the above-mentioned method. The activity of the one where no metal salt was added, was evaluated to be 100%.

[3] = tested on: L-aminoacylase S1; experiment: Substrate profile of L-aminoacylase S1; format: biochemical, Streptomyces hachijoensis; conditions: for Relative activity (%): compound used as substrate, L-N-acetyl-methionine evaluated to be 100
Protocol: (§2) The enzymatic activity was measured by using N-acyl derivatives of various amino acids as the substrate.

[4] = tested on: L-aminoacylase S2; experiment: Substrate profile of L-aminoacylase S2; format: biochemical, Streptoverticillium rimofaciens; conditions: for Relative activity (%): compound used as substrate, L-N-acetyl-methionine evaluated to be 100
Protocol: as §2

[5] = tested on: L-aminoacylase S1; experiment: Influence of inhibitors on L-aminoacylase S1; format: biochemical, Streptomyces hachijoensis
Protocol: as §1, with “activity. As shown, 95% or more is deactivated by the treatment at pH 7.0 at 60° C., but the enzyme is certainly stable at a temperature of 50° C. or lower.” for “activity.”
The enzyme of the present invention is left to stand at 37° C. for one hour together with various inhibitors, and then reacted with N-Ac-DB-DOPS as the substrate at 37° C. for one hour, whereby the remaining activity was measured by the above-mentioned method.

[6] = tested on: L-aminoacylase S2; experiment: Influence of inhibitors on L-aminoacylase S2; format: biochemical, Streptoverticillium rimofaciens
Protocol: As the substrate, N-Ac-DB-DOPS was used, and the reaction was conducted at 37° C. for one hour, whereby freed DB-DOPS was measured by a ninhydrin method to determine the enzymatic activity. As shown in the Figure, 20% is deactivated by the treatment at 60° C., and at least 70% is deactivated at 70° C. However, the enzyme is certainly stable at 50° C.
The enzyme of the present invention was left to stand for one hour at 37° C. together with various inhibitors, and then reacted at 37° C. for one hour with N-Ac-DB-DOPS as the substrate, whereupon the remaining activity was measured by the above-mentioned method.

[7] = L-aminoacylase S1, inhibitor 1 mM, 37° C. one hour, substrate N-Ac-DB-DOPS
[8] = L-aminoacylase S2, inhibitor 1 mM, 37° C. one hour, substrate N-Ac-DB-DOPS

| Compound | Relative activity (%) [1] [%] | Relative activity (%) [2] [%] | Relative activity (%) [3] [%] | Relative activity (%) [4] [%] | other results |
| --- | --- | --- | --- | --- | --- |
| [Hg+2] [Hg^++] | 2 | 15 |  |  | Influence of metal ions on activity (in words) [1]: strongly inhibited; Influence of metal ions on activity (in words) [2]: prohibited; also recorded: strongly inhibited |
| CC(=O)NCC(=O)O [N--acetyl-glycine] |  |  | 2 | 2 |  |
| CSCC[C@@H](NC(C)=O)C(=O)O [D-N--acetyl-methionine] |  |  | 0 | 0 |  |
| CC(=O)N[C@@H](C)C(=O)O [L-N--acetyl-alanine] |  |  | 7 | 8 |  |
| [Ag+] [Ag^+] | 3 | 0 |  |  | Influence of metal ions on activity (in words) [1]: strongly inhibited; Influence of metal ions on activity (in words) [2]: prohibited; also recorded: strongly inhibited |
| CSCC[C@H](NC=O)C(=O)O [L-N--formyl-methionine] |  |  | 4 | 5 |  |
| CC(=O)N[C@@H](Cc1ccc(O)cc1)C(=O)O [L-N--acetyl-tyrosine] |  |  |  | 137 |  |
| [Cu+2] [Cu^++] | 14 | 16 |  |  | Influence of metal ions on activity (in words) [1]: strongly inhibited; Influence of metal ions on activity (in words) [2]: prohibited; also recorded: strongly inhibited |
| [Mg+2] [Mg^++] | 107 | 95 |  |  |  |
| CSCC[C@H](NC(C)=O)C(=O)O [L-N--acetyl-methionine, L-N-acetyl-methionine] |  |  | 100 | 100 |  |
| CC(=O)N[C@@H](Cc1ccccc1)C(=O)O [L-N--acetyl-phenylalanine] |  |  | 197 | 286 |  |
| CSCC[C@H](NC(=O)c1ccccc1)C(=O)O [L-N--benzoyl-methionine] |  |  |  | 10 |  |
| CC(=O)N[C@@H](CCCNC(=N)N)C(=O)O [L-N--acetyl-arginine] |  |  | 85 | 61 |  |
| CC(=O)N[C@H](C(=O)O)C(C)C [L-N--acetyl-valine] |  |  | 42 | 35 |  |
| CC(=O)N[C@@H](Cc1c[nH]c2ccccc12)C(=O)O [L-N--acetyl-tryptophan] |  |  | 80 | 98 |  |
| [Co+2] [Co^++] | 162 | 38 |  |  | Influence of metal ions on activity (in words) [1]: activated; Influence of metal ions on activity (in words) [2]: prohibited; also recorded: strongly inhibited |
| CC(=O)NC(C)c1ccccc1 (racemic) [DL-N--acetyl-α-methylbenzylamine, DL-N-acetyl-α-methylbenzylamine] |  |  | 0 | 0 | Action of the enzyme on the substrate (in words) [3]: does not act; Action of the enzyme on the substrate (in words) [4]: does not act |

| Compound | Relative activity (%) [1] [%] | Relative activity (%) [2] [%] | Relative activity (%) [3] [%] | Relative activity (%) [4] [%] | other results |
| --- | --- | --- | --- | --- | --- |
| CC(=O)N[C@H](C(=O)O)c1ccc(CO)c(O)c1 [L-N--acetyl-2-(4-hydroxymethyl-3-hydroxyphenyl)glycine] |  |  | 41 | 65 |  |
| CC(=O)N[C@H](Cc1c[nH]c2ccccc12)C(=O)O [D-N--acetyl-tryptophan] |  |  | 0 | 0 |  |
| [Mn+2] [Mn^++] | 61 | 31 |  |  | Influence of metal ions on activity (in words) [2]: prohibited; also recorded: strongly inhibited |
| O=C(O)c1cc[c]([Hg][Cl])cc1 [p-chloromercuribenzoate] |  |  |  |  | Influence of inhibitors on activity (in words) ([5]; L-aminoacylase S1): inhibited; Remaining activity (%) [5, 7]: 2%; Influence of inhibitors on activity (in words) ([6]; L-aminoacylase S2): strongly inhibited; Remaining activity (%) [6, 8]: 0% |
| O=C(O)CI [Monoiodoacetic acid] |  |  |  |  | Influence of inhibitors on activity (in words) [5]: not inhibited; Remaining activity (%) [5]: 94%; Influence of inhibitors on activity (in words) [6]: strongly inhibited; Remaining activity (%) [6]: 3% |
| [Zn+2] [Zn^++] | 102 | 71 |  |  |  |
| [Ca+2] [Ca^++] | 72 | 98 |  |  |  |
| CC(=O)N[C@H]1C(O)O[C@H](CO)[C@@H](O)[C@@H]1O (stereo partly drawn) [N--acetyl-D-glucosamine, N-acetyl-D-glucosamine] |  |  | 0 | 0 | Action of the enzyme on the substrate (in words) [3]: does not act; Action of the enzyme on the substrate (in words) [4]: does not act |
| N[C@@H](CS)C(=O)O [L-cysteine] |  |  |  |  | Influence of inhibitors on activity (in words) ([6]; L-aminoacylase S2): strongly inhibited; Remaining activity (%) [6, 8]: 11%; Influence of inhibitors on activity (in words) ([6]; L-aminoacylase S2, listed as cysteine): inhibited |
| CC(=O)N[C@@H](Cc1c[nH]cn1)C(=O)O [L-N--acetyl-histidine] |  |  | 41 | 36 |  |
| OCCS [β-mercaptoethanol] |  |  |  |  | Remaining activity (%) [5, 7]: 76% |
| CC(=O)N[C@@H](CCC(=O)O)C(=O)O [L-N--acetyl-glutamic acid] |  |  | 19 | 18 |  |
| [Ni+2] [Ni^++] | 7 | 33 |  |  | Influence of metal ions on activity (in words) [1]: strongly inhibited; Influence of metal ions on activity (in words) [2]: prohibited; also recorded: strongly inhibited |
| CC(=O)N[C@H](C(=O)O)[C@H](O)c1ccc(OCc2ccccc2)c(OCc2ccccc2)c1 [L-threo-N-acetyl-3-(3,4-dibenzyloxyphenyl)serine] |  |  | 14 | 20 |  |
| [Fe+2] [Fe^++] | 17 | 18 |  |  | Influence of metal ions on activity (in words) [1]: strongly inhibited; Influence of metal ions on activity (in words) [2]: prohibited; also recorded: strongly inhibited |
| CC(=O)N[C@@H](CC(C)C)C(=O)O [L-N--acetyl-leucine] |  |  | 76 | 71 |  |
